Where two headings read alike, the source gives them in different places.
What was measured:
[1] = molecular target: T1, PDE4B: The catalytic domain of human PDE4B from S152-S528 (Homo sapiens, UniProt Q07343); test: PDE4 IC50 determination by Scintillation Proximity Assay, PDE4B; format: biochemical
T1 construct: His6 (N); thrombin cleavage site (N); made in house; host or cells: E. coli
How it was run: (§1)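 Hydrolysis of [^3H]cAMP measured by SPA with yttrium silicate beads, which bind the [^3H]AMP product strongly and cAMP weakly. Enzyme at 80 ng/ml for PDE4B, 4 ng/ml for PDE4D; 30 min at 30°.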

PDE4D = molecular target: T2, PDE4D (Homo sapiens, UniProt Q08499); test: PDE4 IC50 determination by Scintillation Proximity Assay, PDE4D; format: biochemical; conditions: Table 1B, Formula I compounds; read-out: IC50 PDE4D
T2 construct: PDE4D: The catalytic domain of human PDE4B from S3 16-V692; His6 (N); thrombin cleavage site (N); made in house; host or cells: E. coli
T2 sequence (Q08499 380-756): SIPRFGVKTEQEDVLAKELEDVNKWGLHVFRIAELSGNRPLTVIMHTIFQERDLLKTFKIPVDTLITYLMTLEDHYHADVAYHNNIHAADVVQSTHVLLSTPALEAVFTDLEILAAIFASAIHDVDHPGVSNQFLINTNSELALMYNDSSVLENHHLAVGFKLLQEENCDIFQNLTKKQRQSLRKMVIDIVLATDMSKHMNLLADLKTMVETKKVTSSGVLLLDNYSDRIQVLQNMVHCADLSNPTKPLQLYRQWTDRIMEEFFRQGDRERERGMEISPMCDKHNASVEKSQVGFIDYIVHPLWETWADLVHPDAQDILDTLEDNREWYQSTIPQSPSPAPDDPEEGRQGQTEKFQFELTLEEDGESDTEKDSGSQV
How it was run: as §1

[2] = molecular target: T3, full-length human PDE4B2 isozyme (Homo sapiens, UniProt Q07343); test: PDE4 IC50 determination by Scintillation Proximity Assay, PDE4B2; format: biochemical
T3 construct: The full-length human PDE4B2 isozyme; His6 (N); TEV cleavage site (N); made in house; host or cells: baculovirus infected insect cells (unpurified lysate)
T3 sequence (Q07343 1-564 isoform Q07343-2): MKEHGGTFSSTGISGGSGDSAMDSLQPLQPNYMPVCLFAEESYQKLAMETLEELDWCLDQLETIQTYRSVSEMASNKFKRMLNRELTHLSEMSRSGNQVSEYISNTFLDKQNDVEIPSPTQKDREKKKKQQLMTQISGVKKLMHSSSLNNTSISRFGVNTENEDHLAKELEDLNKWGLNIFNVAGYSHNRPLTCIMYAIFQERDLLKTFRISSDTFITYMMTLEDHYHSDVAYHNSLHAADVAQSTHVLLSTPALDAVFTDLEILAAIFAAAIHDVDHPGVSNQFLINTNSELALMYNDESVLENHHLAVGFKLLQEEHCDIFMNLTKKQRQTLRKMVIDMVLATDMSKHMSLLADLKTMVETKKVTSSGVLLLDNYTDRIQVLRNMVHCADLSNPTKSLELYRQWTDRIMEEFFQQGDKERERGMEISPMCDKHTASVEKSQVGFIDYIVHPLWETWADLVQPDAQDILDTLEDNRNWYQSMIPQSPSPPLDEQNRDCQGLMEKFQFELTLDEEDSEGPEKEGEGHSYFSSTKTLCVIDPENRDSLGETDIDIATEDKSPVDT
How it was run: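 Unpurified His6-TEV-tagged full-length human PDE4B2 from baculovirus-infected insect cell lysate (2.5 μl of 50% glycerol stock/ml) hydrolysed [3H]cAMP in 50 mM Tris pH 7.5, 8.3 mM MgCl, 1.7 mM EGTA, 0.01% BSA for 30 min at 30°. Stopped with SPA beads in 18 mM ZnSO4; [3H]AMP scintillation counted, IC50 by non-linear regression.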

[3] = molecular target: T4, full-length human PDE4D5 isozyme (Homo sapiens, UniProt Q08499); test: PDE4 IC50 determination by Scintillation Proximity Assay, PDE4D5; format: biochemical
T4 construct: The full-length human PDE4D5 isozyme; His6 (N); TEV cleavage site (N); made in house; host or cells: baculovirus infected insect cells (unpurified lysate)
T4 sequence (Q08499 1-745 isoform Q08499-6): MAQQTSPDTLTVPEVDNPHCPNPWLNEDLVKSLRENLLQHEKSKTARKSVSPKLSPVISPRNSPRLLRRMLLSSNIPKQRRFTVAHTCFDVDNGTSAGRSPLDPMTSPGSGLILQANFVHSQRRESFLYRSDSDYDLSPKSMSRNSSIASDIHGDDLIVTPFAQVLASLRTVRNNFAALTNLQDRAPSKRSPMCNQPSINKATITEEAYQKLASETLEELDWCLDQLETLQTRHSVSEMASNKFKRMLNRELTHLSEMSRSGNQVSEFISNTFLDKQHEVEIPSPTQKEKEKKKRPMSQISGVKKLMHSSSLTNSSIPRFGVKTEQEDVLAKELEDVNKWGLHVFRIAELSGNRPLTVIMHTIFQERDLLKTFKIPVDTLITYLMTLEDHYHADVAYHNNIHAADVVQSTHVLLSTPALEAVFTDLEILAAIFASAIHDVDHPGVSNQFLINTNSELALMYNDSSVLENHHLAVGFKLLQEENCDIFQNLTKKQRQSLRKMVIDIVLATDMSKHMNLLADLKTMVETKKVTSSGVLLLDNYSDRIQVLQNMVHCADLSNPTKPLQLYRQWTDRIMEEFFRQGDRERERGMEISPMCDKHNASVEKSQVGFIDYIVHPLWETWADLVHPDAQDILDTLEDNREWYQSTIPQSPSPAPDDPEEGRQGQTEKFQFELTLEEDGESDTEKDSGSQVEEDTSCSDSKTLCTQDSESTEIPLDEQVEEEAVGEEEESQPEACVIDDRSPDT
How it was run: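 Unpurified His6-tagged full-length human PDE4D5 from baculovirus-infected insect cell lysate, 0.083 μl glycerol stock/ml, hydrolysed [3H]cAMP in Tris pH 7.5/MgCl/EGTA buffer, 30 min at 30°. ZnSO4/SPA beads stop; [3H]AMP counted. Controls: DMSO and roflumilast; 11-point duplicate curves, nonlinear-regression IC50.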

[4] = test system: TNF alpha production in LPS-stimulated human blood (Buffy coat); test: TNF alpha production by stimulation with LPS in whole blood cultures; format: cell-based
Protocol: Compounds were assayed to generate IC50 numbers as described in Example 54, using the following assay protocol (see Tables 3B and 4B for compounds and results).
Protocol • 1) Obtained 20 mM DMSO aliquots of desired concentrations of compounds (see Tables 3B and 4B for compounds tested and results). Placed 2 μl/well compound in DMSO in the top row of the dilution plate. Added 98 μl of RPMI 1640 media w/2.5% heat inactivated FBS.
2) Made the same media with 2% DMSO in it. Added 60 μl/well to well to make compound titration. Took 30 μl of top row and did a 1:3 dilution down the plate. In column 11 added 4 wells of 50 μM roflumilast and piclamilast. In column 12 added 2% DMSO media.
3) Transfered 20 μl/well into assay plates in duplicate.
4) Obtained human Buffy coat.
5) Diluted blood with 7 volumes of RPMI 1640 media with 1% P/S and 2.5% heat inactivated FBS (a 1:8 dilution)
6) Added160 μl/well of diluted blood to the assay plates.
7) Incubated for 1 hour at 37 degrees 5% CO2
8) Diluted LPS (which was already diluted to 1 mg/ml in PBS, 20 μl aliquots frozen −20 C.) to 10× desired final concentration to make a […] dilution (final concentration should be 100 ng/ml).
9) After 1 hour incubation added 20 μl/well of LPS to plates. A non-LPS treated background was also prepared. Samples were put on the shaker for a one minute 900 rpm.
10) Incubated for 4 hours in incubator.
11) After incubation, put on the shaker for a one minute 900 rpm and spun plate at 100 g for 10 minutes, Decel 5.
12) Carefully pipetted the top 75 μl supernatant into a new plate. Samples were frozen as needed.
Biosource hu-TNF ALPHA ELISA
• REAGENTS USED • DPBS 10×: VWR45000-428 (dilute 1:10 with Millipore Water) • TWEEN 20: FISHER BP337-500 • CAPTURE AND DETECTION ANTIBODIES: R&D DY510E • STREP-HRP: Biosource part SNN4004X • COLOR REAGENTS: R&D DY994 • STOP SOLUTION: from chemistry, or R&D DY999 • 1) Thawed samples to RT as needed. • 2) Added 50 μl Incubation buffer/well. • 3) Added 50 μl blood samples +50 μl Diluent buffer • 4) Incubated 2 hours at room temp. • 5) Washed the plate 4× with 300 μl/well wash buffer with microfill. Wash buffer was DPBS with 0.05% Tween pH 7.2-7.4 • 6) Added 100 μl biotinylated anti-TNFalpha • 7) Incubateed 1 hours at room temp. • 8) Washed the plate 4× with 300 μl/well wash buffer with microfill. Wash buffer was DPBS with 0.05% Tween pH 7.2-7.4 • 9) Added^100 μl Streptavidin-HRP working solution • 10) Incubated for 30 minutes at room temp. • 11) Washed the plate 4× with 300 μl/well wash buffer with microfill. Wash buffer was DPBS with 0.05% Tween pH 7.2-7.4 • 12) Added 100 μl Chromagen • 13) Incubated in the dark for 30 minutes until the blue color developed satisfactorily. • 14) Added 100 μl/well stop solution (2 N H2SO4). • 15) Read plate on WallacVictor at 450 nm for 0.1 sec/well

[5] = Table 1B, Formula I compounds, read-out: IC50 PDE4B
[6] = Table 1B, Formula I compounds, read-out: IC50 PDE4B2
[7] = Table 1B, Formula I compounds, read-out: IC50 PDE4D5
[8] = Homo sapiens, Table 1B, Formula I compounds, read-out: IC50 h TNFα

T1 sequence (Q07343 with tags, fused parts or gaps): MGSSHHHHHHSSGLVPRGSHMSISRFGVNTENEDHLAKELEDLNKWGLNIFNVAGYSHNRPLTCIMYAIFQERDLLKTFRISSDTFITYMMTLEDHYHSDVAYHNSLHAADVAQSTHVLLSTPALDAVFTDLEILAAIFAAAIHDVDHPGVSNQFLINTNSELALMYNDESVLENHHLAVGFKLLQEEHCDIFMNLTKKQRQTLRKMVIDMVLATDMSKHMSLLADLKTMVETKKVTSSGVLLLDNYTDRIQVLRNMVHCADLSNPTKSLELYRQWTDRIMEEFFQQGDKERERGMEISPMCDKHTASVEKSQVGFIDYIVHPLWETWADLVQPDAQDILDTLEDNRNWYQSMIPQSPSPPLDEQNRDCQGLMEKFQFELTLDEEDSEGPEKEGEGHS

| IC50 [1, 5] | IC50 (PDE4D) | IC50 [2, 6] | IC50 [3, 7] | IC50 [4, 8] | IC50 ([1]; first part of Table 2B (2-1 to 2-22), read-out: IC 50 vs. indicated assay PDE4B) | IC50 ([2]; first part of Table 2B (2-1 to 2-22), read-out: IC 50 vs. indicated assay PDE4B2) | IC50 ([3]; first part of Table 2B (2-1 to 2-22), read-out: IC 50 vs. indicated assay PDE4D5) | IC50 ([4]; human whole blood, LPS 100 ng/ml, read-out: IC 50 vs. indicated assay h TNFα) | Structure (SMILES) |
| --- | --- | --- | --- | --- | --- | --- | --- | --- | --- |
| < 10 µM | < 10 µM | < 10 µM | < 10 µM | < 10 µM | – | – | – | – | N#Cc1c(Nc2ccccc2)sc(C(=O)c2ccc(Cl)cc2)c1N [Compound 1-20, 4-Amino-5-(4-chloro-benzoyl)-2-phenylamino-thiophene-3-carbonitrile] |
| < 10 µM | < 10 µM | < 10 µM | < 10 µM | > 10 µM | – | – | – | – | COc1ccc(OC)c(C(=O)c2sc(NC3CCCC3)c(C#N)c2N)c1 [Compound 1-40] |
| < 10 µM | < 10 µM | < 10 µM | < 10 µM | < 10 µM | – | – | – | – | COc1ccc(Nc2sc(C(=O)c3ccccc3Cl)c(N)c2C#N)cc1 [Compound 1-110, 4-Amino-5-(2-chloro-benzoyl)-2-(4-methoxy-phenylamino)-thiophene-3-carbonitrile] |
| < 10 µM | < 10 µM | < 10 µM | < 10 µM | > 10 µM | – | – | – | – | CC(C)CNc1sc(C(=O)c2cc(-c3ccccc3)no2)c(N)c1C#N [Compound 1-209, 4-Amino-2-isobutylamino-5-(3-phenyl-isoxazole-5-carbonyl)-thiophene-3-carbonitrile] |
| < 10 µM | < 10 µM | < 10 µM | < 10 µM | < 10 µM | – | – | – | – | Cc1nc(-c2cnccn2)sc1C(=O)c1sc(NC2CCCC2)c(C#N)c1N [Compound 1-219, 4-Amino-2-cyclopentylamino-5-(4-methyl-2-pyrazin-2-yl-thiazole-5-carbonyl)-thiophene-3-carbonitrile] |
| < 10 µM | > 10 µM | < 10 µM | > 10 µM | > 10 µM | – | – | – | – | N#Cc1c(NC2CCCC2)sc(C(=O)c2cc(-c3ccc([N+](=O)[O-])cc3)no2)c1N [Compound 1-220, 4-Amino-2-cyclopentylamino-5-[3-(4-nitro-phenyl)-isoxazole-5-carbonyl]-thiophene-3-carbonitrile] |
| < 10 µM | < 10 µM | < 10 µM | > 10 µM | > 10 µM | – | – | – | – | CCC(C)Nc1sc(C(=O)c2cc(-c3ccccc3)no2)c(N)c1C#N (stereo not shown) [Compound 1-222, 4-Amino-2-sec-butylamino-5-(3-phenyl-isoxazole-5-carbonyl)-thiophene-3-carbonitrile] |
| < 10 µM | – | < 10 µM | < 10 µM | < 10 µM | – | – | – | – | Cc1c(NC2CCCC2)sc(C(=O)c2cc(-c3ccccc3)no2)c1N [Compound 1-240, (3-Amino-5-cyclopentylamino-4-methyl-thiophen-2-yl)-(3-phenyl-isoxazol-5-yl)-methanone] |
| < 10 µM | – | < 10 µM | > 10 µM | > 10 µM | – | – | – | – | CCc1c(NC2CCCC2)sc(C(=O)c2cc(-c3ccccc3)no2)c1N [Compound 1-241, (3-Amino-5-cyclopentylamino-4-ethyl-thiophen-2-yl)-(3-phenyl-isoxazole-5-yl)-methanone] |
| < 10 µM | – | < 10 µM | < 10 µM | < 10 µM | – | – | – | – | COc1ccccc1Nc1sc(C(=O)c2cc(-c3ccccc3)no2)c(N)c1C#N [Compound 1-242] |
| < 10 µM | < 10 µM | – | > 10 µM | > 10 µM | – | – | – | – | CCC(C)Nc1sc(C(=O)c2cc(-c3ccc(Cl)c(Cl)c3)no2)c(N)c1C(N)=O (stereo not shown) [Compound 1-249, 4-Amino-2-sec butylamino-5-[3-(3,4-dichloro-phenyl)-isoxazole-5-carbonyl]-thiophene-3-carboxylic acid amide] |
| – | – | > 10 µM | > 10 µM | > 10 µM | – | – | – | – | NC(=O)c1c(N)sc(C(=O)c2cc(-c3ccccc3)no2)c1N [Compound 1-255, 2,4-Diamino-5-(3-phenyl-isoxazole-5-carbonyl)-thiophene-3-carboxylic acid amide] |
| – | – | – | – | – | < 10 µM | < 10 µM | < 10 µM | < 10 µM | Nc1nc(NC2CCCC2)sc1C(=O)c1cc(-c2ccccc2)cs1 [Compound 2-19, (4-Amino-2-cyclopentylamino-thiazol-5-yl)-(4-phenyl-thiophen-2yl)-methanone] |

Reference: US7585859B2, “PDE4B inhibitors and uses therefor” (Plexxikon, Inc., priority 2004, dated 2009)
